Assay results from PubChem BioAssay AID2060884 (Molecular Pharmacology Branch, DTP, NCI, 2025).

Tested on: NCI-H929 complex spheroids, viability % test/control
Test: Anticancer human tumor NCI-H929 cell line growth inhibition [RAS];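 note: compound exposure lasted seven days before viability was read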;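 for viability, T/C: 100% = DMSO vehicle control viability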
Conditions: for IC50: curve of first compound; for viability, T/C: stronger effect = lower value
Outline: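 Tumour cells grown as complex spheroids with HUVEC endothelial cells and mesenchymal stem cells, treated with RAS pathway inhibitor combinations. Each agent spans half-log steps from near clinical Cmax, or 10 microM where Cmax is unknown.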

## CCN1CCN(Cc2ccc(Nc3ncc(F)c(-c4cc(F)c5nc(C)n(C(C)C)c5c4)n3)nc2)CC1 + C#Cc1c(F)ccc2cc(O)cc(-c3ncc4c(N5CC6CCC(C5)N6)nc(OCC56CCCN5CC(F)C6)nc4c3F)c12
Second compound 0.0316 µM
  IC50: > 1000 nM
Second compound 0.1 µM
  IC50: > 1000 nM
Second compound 0.316 µM
  IC50: > 1000 nM
Second compound 1 µM
  IC50: > 1000 nM
Second compound 3.16 µM
  IC50: > 1000 nM
Second compound 10 µM
  IC50: > 1000 nM
Second compound 0.0316 µM, first compound 0.00316 µM
  viability, T/C: 101%
Second compound 0.0316 µM, first compound 0.01 µM
  viability, T/C: 102%
Second compound 0.0316 µM, first compound 0.0316 µM
  viability, T/C: 108%
Second compound 0.0316 µM, first compound 0.1 µM
  viability, T/C: 106%
Second compound 0.0316 µM, first compound 0.316 µM
  viability, T/C: 120%
Second compound 0.0316 µM, first compound 1 µM
  viability, T/C: 107%
Second compound 0.1 µM, first compound 0.00316 µM
  viability, T/C: 92.2%
Second compound 0.1 µM, first compound 0.01 µM
  viability, T/C: 99.1%
Second compound 0.1 µM, first compound 0.0316 µM
  viability, T/C: 103%
Second compound 0.1 µM, first compound 0.1 µM
  viability, T/C: 107%
Second compound 0.1 µM, first compound 0.316 µM
  viability, T/C: 118%
Second compound 0.1 µM, first compound 1 µM
  viability, T/C: 110%
Second compound 0.316 µM, first compound 0.00316 µM
  viability, T/C: 96.6%
Second compound 0.316 µM, first compound 0.01 µM
  viability, T/C: 100%
Second compound 0.316 µM, first compound 0.0316 µM
  viability, T/C: 103%
Second compound 0.316 µM, first compound 0.1 µM
  viability, T/C: 113%
Second compound 0.316 µM, first compound 0.316 µM
  viability, T/C: 120%
Second compound 0.316 µM, first compound 1 µM
  viability, T/C: 115%
Second compound 1 µM, first compound 0.00316 µM
  viability, T/C: 93.2%
Second compound 1 µM, first compound 0.01 µM
  viability, T/C: 102%
Second compound 1 µM, first compound 0.0316 µM
  viability, T/C: 109%
Second compound 1 µM, first compound 0.1 µM
  viability, T/C: 113%
Second compound 1 µM, first compound 0.316 µM
  viability, T/C: 117%
Second compound 1 µM, first compound 1 µM
  viability, T/C: 112%
Second compound 3.16 µM, first compound 0.00316 µM
  viability, T/C: 97.8%
Second compound 3.16 µM, first compound 0.01 µM
  viability, T/C: 100%
Second compound 3.16 µM, first compound 0.0316 µM
  viability, T/C: 104%
Second compound 3.16 µM, first compound 0.1 µM
  viability, T/C: 112%
Second compound 3.16 µM, first compound 0.316 µM
  viability, T/C: 120%
Second compound 3.16 µM, first compound 1 µM
  viability, T/C: 115%
Second compound 10 µM, first compound 0.00316 µM
  viability, T/C: 98.5%
Second compound 10 µM, first compound 0.01 µM
  viability, T/C: 100%
Second compound 10 µM, first compound 0.0316 µM
  viability, T/C: 99.2%
Second compound 10 µM, first compound 0.1 µM
  viability, T/C: 109%
Second compound 10 µM, first compound 0.316 µM
  viability, T/C: 118%
Second compound 10 µM, first compound 1 µM
  viability, T/C: 57.3%

## CC(C)n1nc(-c2ccc3oc(N)nc3c2)c2c(N)ncnc21 + CCn1c(-c2cccnc2C(C)OC)c2c3cc(ccc31)N1CCOC(CC(NC(=O)C(C(C)C)N(C)C(=O)C3(F)CCN(C(=O)C#CC(C)(C)N(C)C)CC3)C(=O)N3CCCC(N3)C(=O)OCC(C)(C)C2)C1
Second compound 0.000949 µM
  IC50: 33.9 nM
Second compound 0.003 µM
  IC50: 38.8 nM
Second compound 0.00949 µM
  IC50: 39.4 nM
Second compound 0.03 µM
  IC50: 36.1 nM
Second compound 0.0949 µM
  IC50: 29.7 nM
Second compound 0.3 µM
  IC50: 27.1 nM
Second compound 0.000949 µM, first compound 0.000316 µM
  viability, T/C: 104%
Second compound 0.000949 µM, first compound 0.001 µM
  viability, T/C: 103%
Second compound 0.000949 µM, first compound 0.00316 µM
  viability, T/C: 107%
Second compound 0.000949 µM, first compound 0.01 µM
  viability, T/C: 101%
Second compound 0.000949 µM, first compound 0.0316 µM
  viability, T/C: 53.1%
Second compound 0.000949 µM, first compound 0.1 µM
  viability, T/C: 2.22%
Second compound 0.003 µM, first compound 0.000316 µM
  viability, T/C: 105%
Second compound 0.003 µM, first compound 0.001 µM
  viability, T/C: 107%
Second compound 0.003 µM, first compound 0.00316 µM
  viability, T/C: 105%
Second compound 0.003 µM, first compound 0.01 µM
  viability, T/C: 98.5%
Second compound 0.003 µM, first compound 0.0316 µM
  viability, T/C: 60.3%
Second compound 0.003 µM, first compound 0.1 µM
  viability, T/C: 2.31%
Second compound 0.00949 µM, first compound 0.000316 µM
  viability, T/C: 101%
Second compound 0.00949 µM, first compound 0.001 µM
  viability, T/C: 105%
Second compound 0.00949 µM, first compound 0.00316 µM
  viability, T/C: 106%
Second compound 0.00949 µM, first compound 0.01 µM
  viability, T/C: 99.8%
Second compound 0.00949 µM, first compound 0.0316 µM
  viability, T/C: 61.4%
Second compound 0.00949 µM, first compound 0.1 µM
  viability, T/C: 1.89%
Second compound 0.03 µM, first compound 0.000316 µM
  viability, T/C: 97.8%
Second compound 0.03 µM, first compound 0.001 µM
  viability, T/C: 104%
Second compound 0.03 µM, first compound 0.00316 µM
  viability, T/C: 106%
Second compound 0.03 µM, first compound 0.01 µM
  viability, T/C: 100%
Second compound 0.03 µM, first compound 0.0316 µM
  viability, T/C: 56.2%
Second compound 0.03 µM, first compound 0.1 µM
  viability, T/C: 1.72%
Second compound 0.0949 µM, first compound 0.000316 µM
  viability, T/C: 98.7%
Second compound 0.0949 µM, first compound 0.001 µM
  viability, T/C: 108%
Second compound 0.0949 µM, first compound 0.00316 µM
  viability, T/C: 108%
Second compound 0.0949 µM, first compound 0.01 µM
  viability, T/C: 100%
Second compound 0.0949 µM, first compound 0.0316 µM
  viability, T/C: 47.2%
Second compound 0.0949 µM, first compound 0.1 µM
  viability, T/C: 1.3%
Second compound 0.3 µM, first compound 0.000316 µM
  viability, T/C: 102%
Second compound 0.3 µM, first compound 0.001 µM
  viability, T/C: 107%
Second compound 0.3 µM, first compound 0.00316 µM
  viability, T/C: 108%
Second compound 0.3 µM, first compound 0.01 µM
  viability, T/C: 99.5%
Second compound 0.3 µM, first compound 0.0316 µM
  viability, T/C: 42.4%
Second compound 0.3 µM, first compound 0.1 µM
  viability, T/C: 1.08%
